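A five-concentration, 48-hour dose response in 96-well plates underlies each endpoint, interpolated linearly between surrounding concentrations. Here, GI50 denotes the concentration required for 50% inhibition of growth.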 Active and inactive are the calls of the source. Rule as the data show it: active = GI50 up to about 1.1 µM and inactive = higher.
Assays:
Assay in all cases: NCI anticancer screen, dose series, 48 h
HCT-15 = system: HCT-15
OVCAR-4 = system: OVCAR-4
A498 = system: A498
K562 = system: K562
SF-295 = system: SF-295
DU-145 = system: DU-145
NCI-H460 = system: NCI-H460
NCI-H23 = system: NCI-H23
COLO 205 = system: COLO 205
MOLT-4 = system: MOLT-4
NCI-H522 = system: NCI-H522
SF-268 = system: SF-268
CCRF-CEM = system: CCRF-CEM
MCF7 = system: MCF7
OVCAR-5 = system: OVCAR-5
HL-60 = system: HL-60
UACC-62 = system: UACC-62
PC-3 = system: PC-3
HT-29 = system: HT-29
CAKI-1 = system: CAKI-1
RPMI-8226 = system: RPMI-8226
NCI-H226 = system: NCI-H226
A549 = system: A549
HOP-92 = system: HOP-92
SN12C = system: SN12C
EKVX = system: EKVX
SK-MEL-2 = system: SK-MEL-2
786-0 = system: 786-0
NCI/ADR-RES = system: NCI/ADR-RES
HCC 2998 = system: HCC 2998
IGROV-1 = system: IGROV-1
BT-549 = system: BT-549
U-251 = system: U-251
MDA-MB-231 = system: MDA-MB-231
SW-620 = system: SW-620
HCT-116 = system: HCT-116
MDA-MB-435 = system: MDA-MB-435
Malme-3M = system: Malme-3M
MDA-N = system: MDA-N
UACC-257 = system: UACC-257
RXF 393 = system: RXF 393
SNB-75 = system: SNB-75
OVCAR-8 = system: OVCAR-8
SF-539 = system: SF-539
SK-MEL-28 = system: SK-MEL-28
LOX IMVI = system: LOX IMVI
UO-31 = system: UO-31
M14 = system: M14
SNB-19 = system: SNB-19
SK-MEL-5 = system: SK-MEL-5
KM12 = system: KM12
Hs-578T = system: Hs-578T
SK-OV-3 = system: SK-OV-3
T47D = system: T47D
SR = system: SR
ACHN = system: ACHN
OVCAR-3 = system: OVCAR-3
TK-10 = system: TK-10
HOP-62 = system: HOP-62

Q: For Cc1nc(-c2cccnc2)sc1C(=O)CC(=O)C(=O)Nc1cccc(NC(=O)C(=O)CC(=O)c2sc(-c3cccnc3)nc2C)n1, which GI50 (HCT-15) is on record?
A: > 100 µM

Q: And the GI50 (OVCAR-4)?
A: > 100 µM (inactive)

Q: And the GI50 (A498)?
A: > 100 µM (inactive)

Q: What about the GI50 (K562) of the same compound?
A: > 100 µM (inactive)

Q: And the GI50 (SF-295)?
A: > 100 µM (inactive)

Q: And the GI50 (DU-145)?
A: > 100 µM (inactive)

Q: And the GI50 (NCI-H460)?
A: > 100 µM (inactive)

Q: What about the GI50 (NCI-H23) of the same compound?
A: > 100 µM (inactive)

Q: And the GI50 (COLO 205)?
A: > 100 µM (inactive)

Q: What about the GI50 (MOLT-4) of the same compound?
A: > 100 µM (inactive)

Q: And the GI50 (NCI-H522)?
A: > 100 µM (inactive)

Q: And the GI50 (SF-268)?
A: > 100 µM (inactive)

Q: What about the GI50 (CCRF-CEM) of the same compound?
A: > 100 µM (inactive)

Q: What about the GI50 (MCF7) of the same compound?
A: > 100 µM (inactive)

Q: What about the GI50 (OVCAR-5) of the same compound?
A: > 100 µM (inactive)

Q: And the GI50 (HL-60)?
A: > 100 µM (inactive)

Q: And the GI50 (UACC-62)?
A: > 100 µM (inactive)

Q: And the GI50 (PC-3)?
A: > 100 µM (inactive)

Q: And the GI50 (HT-29)?
A: > 100 µM (inactive)

Q: What about the GI50 (CAKI-1) of the same compound?
A: > 100 µM (inactive)

Q: What about the GI50 (RPMI-8226) of the same compound?
A: > 100 µM (inactive)

Q: What about the GI50 (NCI-H226) of the same compound?
A: > 100 µM (inactive)

Q: What about the GI50 (A549) of the same compound?
A: > 100 µM (inactive)

Q: What about the GI50 (HOP-92) of the same compound?
A: > 100 µM (inactive)

Q: And the GI50 (SN12C)?
A: > 100 µM (inactive)

Q: What about the GI50 (EKVX) of the same compound?
A: > 100 µM (inactive)

Q: And the GI50 (SK-MEL-2)?
A: > 100 µM (inactive)

Q: What about the GI50 (786-0) of the same compound?
A: > 100 µM (inactive)

Q: And the GI50 (NCI/ADR-RES)?
A: > 100 µM (inactive)

Q: And the GI50 (HCC 2998)?
A: > 100 µM (inactive)

Q: What about the GI50 (IGROV-1) of the same compound?
A: > 100 µM (inactive)

Q: What about the GI50 (BT-549) of the same compound?
A: > 100 µM (inactive)

Q: What about the GI50 (U-251) of the same compound?
A: > 100 µM (inactive)

Q: And the GI50 (MDA-MB-231)?
A: > 100 µM (inactive)

Q: And the GI50 (SW-620)?
A: > 100 µM (inactive)

Q: And the GI50 (HCT-116)?
A: > 100 µM (inactive)

Q: And the GI50 (MDA-MB-435)?
A: > 100 µM (inactive)

Q: What about the GI50 (Malme-3M) of the same compound?
A: > 100 µM (inactive)

Q: And the GI50 (MDA-N)?
A: > 100 µM (inactive)

Q: And the GI50 (UACC-257)?
A: > 100 µM (inactive)

Q: And the GI50 (RXF 393)?
A: > 100 µM (inactive)

Q: And the GI50 (SNB-75)?
A: 68.5 µM (inactive)

Q: What about the GI50 (OVCAR-8) of the same compound?
A: > 100 µM (inactive)

Q: And the GI50 (SF-539)?
A: > 100 µM (inactive)

Q: What about the GI50 (SK-MEL-28) of the same compound?
A: > 100 µM (inactive)

Q: What about the GI50 (LOX IMVI) of the same compound?
A: > 100 µM (inactive)

Q: And the GI50 (UO-31)?
A: > 100 µM (inactive)

Q: What about the GI50 (M14) of the same compound?
A: > 100 µM (inactive)

Q: What about the GI50 (SNB-19) of the same compound?
A: > 100 µM (inactive)

Q: And the GI50 (SK-MEL-5)?
A: > 100 µM (inactive)

Q: And the GI50 (KM12)?
A: > 100 µM (inactive)

Q: What about the GI50 (Hs-578T) of the same compound?
A: > 100 µM (inactive)

Q: And the GI50 (SK-OV-3)?
A: > 100 µM (inactive)

Q: And the GI50 (T47D)?
A: > 100 µM (inactive)

Q: What about the GI50 (SR) of the same compound?
A: > 100 µM (inactive)

Q: What about the GI50 (ACHN) of the same compound?
A: > 100 µM (inactive)

Q: And the GI50 (OVCAR-3)?
A: > 100 µM (inactive)

Q: CCOC(=O)C1=C(C)C2C=C(c3cccs3)CC(c3ccc(Cl)cc3)=C2OC1=O (centres undefined) was tested. Which GI50 (HCT-15) did it give?
A: 16.8 µM

Q: And the GI50 (OVCAR-4)?
A: 19.7 µM (inactive)

Q: What about the GI50 (A498) of the same compound?
A: 83.2 µM (inactive)

Q: What about the GI50 (K562) of the same compound?
A: 5.05 µM (inactive)

Q: And the GI50 (SF-295)?
A: 60.4 µM (inactive)

Q: What about the GI50 (DU-145) of the same compound?
A: 29.9 µM (inactive)

Q: What about the GI50 (NCI-H460) of the same compound?
A: 64.4 µM (inactive)

Q: And the GI50 (NCI-H23)?
A: 71.1 µM (inactive)

Q: What about the GI50 (COLO 205) of the same compound?
A: 40.9 µM (inactive)

Q: And the GI50 (TK-10)?
A: 31.7 µM (inactive)

Q: What about the GI50 (MOLT-4) of the same compound?
A: 6.07 µM (inactive)

Q: And the GI50 (NCI-H522)?
A: 19.2 µM (inactive)

Q: And the GI50 (SF-268)?
A: 97.1 µM (inactive)

Q: And the GI50 (CCRF-CEM)?
A: 17.3 µM (inactive)

Q: And the GI50 (MCF7)?
A: 14.1 µM (inactive)

Q: And the GI50 (OVCAR-5)?
A: > 100 µM (inactive)

Q: And the GI50 (HL-60)?
A: 4.69 µM (inactive)

Q: And the GI50 (UACC-62)?
A: 45.8 µM (inactive)

Q: And the GI50 (PC-3)?
A: 14.1 µM (inactive)

Q: What about the GI50 (HT-29) of the same compound?
A: 30 µM (inactive)

Q: What about the GI50 (CAKI-1) of the same compound?
A: 57.8 µM (inactive)

Q: What about the GI50 (RPMI-8226) of the same compound?
A: 7.59 µM (inactive)

Q: And the GI50 (NCI-H226)?
A: 21 µM (inactive)

Q: What about the GI50 (A549) of the same compound?
A: > 100 µM (inactive)

Q: What about the GI50 (HOP-92) of the same compound?
A: > 100 µM (inactive)

Q: What about the GI50 (SN12C) of the same compound?
A: 44.3 µM (inactive)

Q: And the GI50 (EKVX)?
A: 31 µM (inactive)

Q: What about the GI50 (SK-MEL-2) of the same compound?
A: > 100 µM (inactive)

Q: What about the GI50 (786-0) of the same compound?
A: 20.6 µM (inactive)

Q: And the GI50 (NCI/ADR-RES)?
A: 30.5 µM (inactive)

Q: And the GI50 (HCC 2998)?
A: 22.5 µM (inactive)

Q: What about the GI50 (IGROV-1) of the same compound?
A: 26.3 µM (inactive)

Q: What about the GI50 (BT-549) of the same compound?
A: 31.5 µM (inactive)

Q: What about the GI50 (U-251) of the same compound?
A: 33.3 µM (inactive)

Q: What about the GI50 (MDA-MB-231) of the same compound?
A: 92.3 µM (inactive)

Q: What about the GI50 (SW-620) of the same compound?
A: 65 µM (inactive)

Q: And the GI50 (HCT-116)?
A: 7.43 µM (inactive)

Q: What about the GI50 (MDA-MB-435) of the same compound?
A: 42.4 µM (inactive)

Q: What about the GI50 (MDA-N) of the same compound?
A: 37.9 µM (inactive)

Q: And the GI50 (UACC-257)?
A: 17.7 µM (inactive)

Q: What about the GI50 (RXF 393) of the same compound?
A: 84.5 µM (inactive)

Q: And the GI50 (SNB-75)?
A: 50.8 µM (inactive)

Q: What about the GI50 (OVCAR-8) of the same compound?
A: 31.8 µM (inactive)

Q: What about the GI50 (SK-MEL-28) of the same compound?
A: 94.4 µM (inactive)

Q: And the GI50 (LOX IMVI)?
A: 16.9 µM (inactive)

Q: What about the GI50 (UO-31) of the same compound?
A: 13.3 µM (inactive)

Q: And the GI50 (M14)?
A: 58.3 µM (inactive)

Q: What about the GI50 (SNB-19) of the same compound?
A: 45.2 µM (inactive)

Q: What about the GI50 (SK-MEL-5) of the same compound?
A: 27 µM (inactive)

Q: And the GI50 (KM12)?
A: 15.2 µM (inactive)

Q: What about the GI50 (Hs-578T) of the same compound?
A: > 100 µM (inactive)

Q: And the GI50 (SK-OV-3)?
A: > 100 µM (inactive)

Q: What about the GI50 (T47D) of the same compound?
A: 3.97 µM (inactive)

Q: What about the GI50 (HOP-62) of the same compound?
A: 86.1 µM (inactive)

Q: What about the GI50 (SR) of the same compound?
A: 15.5 µM (inactive)

Q: And the GI50 (ACHN)?
A: 32.7 µM (inactive)

Q: And the GI50 (OVCAR-3)?
A: 24.7 µM (inactive)
